Results: patent US7083962B2, “Carbonyl reductases, polynucleotides comprising DNA encoding the same, methods for producing the same, and methods for producing optically active alcohol utilizing the same” (Daicel Chemical Industries Ltd., priority 2004, dated 2006)

tested on: carbonyl reductase; test: Substrate specificity: NADPH-dependent reduction by the carbonyl reductase obtained in Example 1; type: biochemical, Torulaspora delbrueckii; settings: substrate 1 mM, coenzyme NADPH; reduction of 3,4-dimethoxyphenylacetone regarded as 100
Procedure: (§1) A reaction solution comprising 50 mM potassium phosphate buffer (pH 6.5), 0.2 mM NADPH, 5 mM 3,4-dimethoxyphenylacetone, and an enzyme is reacted at 30° C. Any decrease in absorbance at 340 nm accompanying a decrease in NADPH is measured. 1U is defined as the amount of enzyme which catalyzes a 1 μmol decrease of NADPH in one minute.
(§2) The enzyme obtained in Example 1 was reacted with various ketones, ketoesters, and soon. The activities of the reduction reactions were expressed as relative activities, where the reduction of 3,4-dimethoxyphenylacetone was regarded as 100 (Table 2) (substrate specificity of carbonyl reductase). The activity of dehydrogenating 1-(3,4-dimethoxyphenyl)-2-propanol was measured as follows: A reaction was performed at 30° C. in a reaction solution comprising 50 mM Tris-HCl buffer (pH 8.5), 2.5 mM NADP^+, 5 mM 1-(3,4-dimethoxyphenyl)-2-propanol, and the enzyme. An increase in absorbance at 340 nm, accompanying NADPH production, was measured. 1 U was defined as the amount of enzyme catalyzing the production of 1 μmol NADPH per minute. In addition, the activity of reducing NADH-dependent 3,4-dimethoxyphenylacetone was measured as follows: A reaction was performed at 30° C. in a reaction solution comprising 50 mM potassium phosphate buffer (pH 6.5), 0.2 mM NADH, 5 mM 3,4-dimethoxyphenylacetone, and the enzyme, and decrease in absorbance at 340 nm, accompanying decrease in NADH, was measured. 1 U was defined as the amount of enzyme catalyzing a decrease of 1 μmol NADH per minute.

Molecule	Relative activity
CC12CCC(C(=O)C1=O)C2(C)C (centres unmarked) [Camphorquinone]	644%

same assay, conditions: substrate 2 mM, coenzyme NADPH; reduction of 3,4-dimethoxyphenylacetone regarded as 100

Molecule	Relative activity
O=C(CCl)c1cccc(Cl)c1 [2-Chloro-1-(3′-chlorophenyl)ethanone]	922%

same assay, conditions: substrate 20 mM, coenzyme NADPH; reduction of 3,4-dimethoxyphenylacetone regarded as 100

Molecule	Relative activity
CC(=O)COC(C)=O [1-Acetoxy-2-propanone]	24700%
CC(=O)C(C)=O [2,3-Butanedione]	1480%
CCC(=O)C(C)=O [2,3-Pentanedione]	2590%
CC(=O)CC(C)=O [2,4-Pentanedione]	422%
CC(=O)OC(C)C(C)=O (centres unmarked) [2-Acetoxy-3-butanone]	589%
CC(=O)OC1CCCC1=O (centres unmarked) [2-Acetoxycyclopentanone]	567%
CCC(=O)c1ccc(OC)cc1 [4′-Methoxypropiophenone]	283%
CC(=O)c1ccccc1 [Acetophenone]	256%
CC(=O)CCc1ccccc1 [Benzylacetone]	739%
CCOC(=O)CC(=O)CCl [Ethyl 4-chloroacetoacetate]	6780%
CCOC(=O)CC(C)=O [Ethyl acetoacetate]	3170%
COCC(C)=O [Methoxyacetone]	117%
COC(=O)CC(=O)CCl [Methyl 4-chloroacetoacetate]	8040%
COC(=O)CC(C)=O [Methyl acetoacetate]	3670%
COC(=O)C(C)=O [Methyl pyruvate]	1320%
CC(=O)COc1ccccc1 [Phenoxy-2-propanone]	939%

tested on: carbonyl reductase; test: Activity of dehydrogenating 1-(3,4-dimethoxyphenyl)-2-propanol with NADP+; type: biochemical, Torulaspora delbrueckii; settings: substrate 5 mM, coenzyme NADP+, dehydrogenation, pH 8.5, 30° C.
Procedure: as §2

Molecule	Relative activity
COc1ccc(C[C@@H](C)O)cc1OC [(R)-1-(3,4-dimethoxyphenyl)-2-propanol]	0.0%
COc1ccc(C[C@H](C)O)cc1OC [(S)-1-(3,4-dimethoxyphenyl)-2-propanol]	0.0%

tested on: not listed separately; test: 3,4-dimethoxyphenylacetone-reducing activity of cell-free extracts of transformed Escherichia coli; type: biochemical, Escherichia coli JM109; settings: cell-free extracts of E. coli expressing the homolog
Procedure: as §1
Escherichia coli JM109 strain transformed with plasmid pSE-TDR1, which expresses carbonyl reductase, and plasmid pSG-TDR1, which coexpresses carbonyl reductase and Bacillus subtilis-derived glucose dehydrogenase, was cultured overnight at 30° C. in liquid LB medium containing ampicillin. 0.1 mM IPTG was added, and the strain was further cultured for four hours.
Cells were collected by centrifugation, and then suspended in 50 mM potassium phosphate buffer (pH 6.5) comprising 0.5 M NaCl, 0.02% 2-mercaptoethanol, 2 mM PMSF, and 10% glycerin. Cells were then disrupted by sonication, and centrifuged. The obtained supernatant was used as a cell-free extract. The 3,4-dimethoxyphenylacetone-reducing activity and glucose-dehydrogenating activity of the cell-free extract were measured. The glucose-dehydrogenating activity was measured as follows: Measurements were performed at 30° C. in a reaction solution comprising the enzyme and 100 mM potassium phosphate buffer (pH 6.5), 2.5 mM NAD^+, 100 mM glucose. 1 U was defined as the amount of enzyme to catalyze production of […] of NADH per minute under the aforementioned reaction conditions.
Escherichia coli JM109+strains comprising pSE-YGP7, pSE-YGD9, pSE-YDR1, pSG-YGP7, pSG-YGD9, or pSG-YDR1 were cultured on LB medium comprising ampicillin, induced with 0.1 mM IPTG for four hours, and then centrifuged to collect the cells.
Each of these cell samples was suspended in a cell lysis solution (50 mM KPB pH 8.0, 1 mM EDTA, 0.02% 2-mercaptoethanol, 2 mM PMSF, 10% Glycerol). The cells were ruptured by sonication and then centrifuged to obtain the supernatant, which was used as a cell-free extract.

Molecule	3,4-dimethoxyphenylacetone reductase activity (in words)
YGL157w: Saccharomyces cerevisiae carbonyl reductase homolog, SEQ ID NO: 17, expressed in E. coli from pSE-YGP7 (protein, listed as Saccharomyces cerevisiae) MTTDTTVFVSGATGFIALHIMNDLLKAGYTVIGSGRSQEKNDGLLKKFNNNPKLSMEIVEDIAAPNAFDEVFKKHGKEIKIVLHTASPFHFETTNFEKDLLTPAVNGTKSILEAIKKYAADTVEKVIVTSSTAALVTPTDMNKGDLVITEESWNKDTWDSCQANAVAAYCGSKKFAEKTAWEFLKENKSSVKFTLSTINPGFVFGPQMFADSLKHGINTSSGIVSELIHSKVGGEFYNYCGPFIDVRDVSKAHLVAIEKPECTGQRLVLSEGLFCCQEIVDILNEEFPQLKGKIATGEPATGPSFLEKNSCKFDNSKTKKLLGFQFYNLKDCIVDTAAQMLEVQNEA	confirmed to comprise 3,4-dimethoxyphenylacetone reductase activity
YGL039w: Saccharomyces cerevisiae carbonyl reductase homolog, SEQ ID NO: 21, expressed in E. coli from pSE-YGD9 (protein, listed as Saccharomyces cerevisiae) MTTEKTVVFVSGATGFIALHVVDDLLKTGYKVIGSGRSQEKNDGLLKKFKSNPNLSMEIVEDIAAPNAFDKVFQKHGKEIKVVLHIASPVHFNTTDFEKDLLIPAVNGTKSILEAIKNYAADTVEKVVITSSVAALASPGDMKDTSFVVNEESWNKDTWESCQANAVSAYCGSKKFAEKTAWDFLEENQSSIKFTLSTINPGFVFGPQLFADSLRNGINSSSAIIANLVSYKLGDNFYNYSGPFIDVRDVSKAHLLAFEKPECAGQRLFLCEDMFCSQEALDILNEEFPQLKGKIATGEPGSGSTFLTKNCCKCDNRKTKNLLGFQFNKFRDCIVDTASQLLEVQSKS	confirmed to comprise 3,4-dimethoxyphenylacetone reductase activity
YDR541c: Saccharomyces cerevisiae carbonyl reductase homolog, SEQ ID NO: 25, expressed in E. coli from pSE-YDR1 (protein, listed as Saccharomyces cerevisiae) MSNTVLVSGASGFIALHILSQLLKQDYKVIGTVRSHEKEAKLLRQFQHNPNLTLEIVPDISHPNAFDKVLQKRGREIRYVLHTASPFHYDTTEYEKDLLIPALEGTKNILNSIKKYAADTVERVVVTSSCTAIITLAKMDDPSVVFTEESWNEATWESCQIDGINAYFASKKFAEKAAWEFTKENEDHIKFKLTTVNPSLLFGPQLFDEDVHGHLNTSCEMINGLIHTPVNASVPDFHSIFIDVRDVALAHLYAFQKENTAGKRLVVTNGKFGNQDILDILNEDFPQLRGLIPLGKPGTGDQVIDRGSTTDNSATRKILGFEFRSLHESVHDTAAQILKKENRL	confirmed to comprise 3,4-dimethoxyphenylacetone reductase activity

tested on: not listed separately; test: Enzymatic synthesis of (S)-1-(3,4-dimethoxyphenyl)-2-propanol: optical purity and reaction yield; type: biochemical; settings: 0.2 U homolog enzyme, 50 mM 3,4-dimethoxyphenylacetone, overnight, 25° C., pH 6.5
Procedure: A reaction was performed overnight at 25° C. in 1 mL of a reaction solution comprising 200 mM potassium phosphate buffer (pH 6.5), 1 mM NADP^+, 2 U glucose dehydroganase (Wako Pure Chemical Industries, Ltd.), 250 mM glucose, 0.25 U carbonyl reductase, and 50 mM 3,4-dimethoxyphenylacetone. The optical purity of the produced (S)-1-(3,4-dimethoxyphenyl)-2-propanol was measured as follows: One mL of ethyl acetate was added to 0.5 mL of the reaction solution to extract (S)-1-(3,4-dimethoxyphenyl)-2-propanol, and the extraction solvent was desolvated. 0.5 mL of a dissolving solution (n-hexane: isopropanol=4:1) was then added to dissolve the extract, which was then analyzed by liquid chromatography using an optical resolution column. CHIRALCEL OF (4.6 mm×25 cm; Daicel Chemical Industries, Ltd.) was used as the optical resolution column. Chromatography was performed with a wavelength of 220 nm, a flow rate of 1.0 mL/min, and at 40° C. using an eluting solution of n-hexane: isopropanol=4:1.
In addition, the (S)-1-(3,4-dimethoxyphenyl)-2-propanol thus-produced was quantified using gas chromatography, and a yield relative to the raw starting material, 3,4-dimethoxyphenylacetone, was obtained. Specifically, the analysis was performed at a column temperature of 210° C., using Thermon 3000 (10%)-Chromosorb W (AW-DMCS, Mesh 60–80; 3.2 mm×210 cm) with a hydrogen flame ionization detector (FID). The resulting reaction yield was about 95%.
To prepare crude enzyme solution for enzyme reaction, the crude enzyme solution prepared in Example 18 was concentrated ten-folds using a UF membrane. This solution was reacted overnight at 25° C. in 1 mL of a reaction solution comprising 200 mM potassium phosphate buffer (pH 6.5), 1 mM NADP^+, 2 U glucose dehydrogenase (Wako Pure Chemical Industries, Ltd.), 250 mM glucose, 0.2 U homolog enzyme, and 50 mM 3,4-dimethoxyphenylacetone. Optical purity was measured and the produced (S)-1-(3,4-dimethoxyphenyl)-2-propanol was quantified as in Example 6. As a result, YGL157w (pSE-YGP7) produced 93.7% ee (S)-1-(3,4-dimethoxyphenyl)-2-propanol at a yield of 66%, YGL039w (pSE-YGD9) produced 93.6% ee at a yield of 94%, and YDR541c (pSE-YDR1) produced 94.8% ee at a yield of 6%.

Molecule	Optical purity of the produced (S)-1-(3,4-dimethoxyphenyl)-2-propanol	Yield of (S)-1-(3,4-dimethoxyphenyl)-2-propanol
YGL157w: Saccharomyces cerevisiae carbonyl reductase homolog, SEQ ID NO: 17, expressed in E. coli from pSE-YGP7 (protein, listed as Saccharomyces cerevisiae) MTTDTTVFVSGATGFIALHIMNDLLKAGYTVIGSGRSQEKNDGLLKKFNNNPKLSMEIVEDIAAPNAFDEVFKKHGKEIKIVLHTASPFHFETTNFEKDLLTPAVNGTKSILEAIKKYAADTVEKVIVTSSTAALVTPTDMNKGDLVITEESWNKDTWDSCQANAVAAYCGSKKFAEKTAWEFLKENKSSVKFTLSTINPGFVFGPQMFADSLKHGINTSSGIVSELIHSKVGGEFYNYCGPFIDVRDVSKAHLVAIEKPECTGQRLVLSEGLFCCQEIVDILNEEFPQLKGKIATGEPATGPSFLEKNSCKFDNSKTKKLLGFQFYNLKDCIVDTAAQMLEVQNEA	93.7 % ee	66%
YGL039w: Saccharomyces cerevisiae carbonyl reductase homolog, SEQ ID NO: 21, expressed in E. coli from pSE-YGD9 (protein, listed as Saccharomyces cerevisiae) MTTEKTVVFVSGATGFIALHVVDDLLKTGYKVIGSGRSQEKNDGLLKKFKSNPNLSMEIVEDIAAPNAFDKVFQKHGKEIKVVLHIASPVHFNTTDFEKDLLIPAVNGTKSILEAIKNYAADTVEKVVITSSVAALASPGDMKDTSFVVNEESWNKDTWESCQANAVSAYCGSKKFAEKTAWDFLEENQSSIKFTLSTINPGFVFGPQLFADSLRNGINSSSAIIANLVSYKLGDNFYNYSGPFIDVRDVSKAHLLAFEKPECAGQRLFLCEDMFCSQEALDILNEEFPQLKGKIATGEPGSGSTFLTKNCCKCDNRKTKNLLGFQFNKFRDCIVDTASQLLEVQSKS	93.6 % ee	94%
YDR541c: Saccharomyces cerevisiae carbonyl reductase homolog, SEQ ID NO: 25, expressed in E. coli from pSE-YDR1 (protein, listed as Saccharomyces cerevisiae) MSNTVLVSGASGFIALHILSQLLKQDYKVIGTVRSHEKEAKLLRQFQHNPNLTLEIVPDISHPNAFDKVLQKRGREIRYVLHTASPFHYDTTEYEKDLLIPALEGTKNILNSIKKYAADTVERVVVTSSCTAIITLAKMDDPSVVFTEESWNEATWESCQIDGINAYFASKKFAEKAAWEFTKENEDHIKFKLTTVNPSLLFGPQLFDEDVHGHLNTSCEMINGLIHTPVNASVPDFHSIFIDVRDVALAHLYAFQKENTAGKRLVVTNGKFGNQDILDILNEDFPQLRGLIPLGKPGTGDQVIDRGSTTDNSATRKILGFEFRSLHESVHDTAAQILKKENRL	94.8 % ee	6%
